Data: patent publication US20120010281A1, “ANTIMICROBIAL AND ANTI[…]” (THE TRUSTEES OF PRINCETON UNIVERSITY, priority 2010, published 2012)
In brackets after ≈: the same amount, converted by molar mass.

System: M. tuberculosis mc^27000
Assay: microbe, parasite or virus in culture
Assay type: cell-based
Settings: for MIC: Mycobacterium tuberculosis, 120 h, range of assayed concentrations that bounds the mean of three independent determinations, read-out: mc^27000 7H9 MIC; for inhibitory activity against Mtb mc^27000 (in words): comment on the Table 1 MIC values, relative to tiamulin

SMILES	MIC	inhibitory activity against Mtb mc^27000 (in words)
C=C1C[C@@H](OC(=O)CO)C2CCCC3(CCC(=O)C23)C[C@@H]1O (some centres unmarked) [Compound 4]	> 200 mg/L	–
C=C1C[C@@H](OC(=O)CSCCN(CC)CC)C2CCCC3(CCC(=O)C23)C[C@@H]1O (some centres unmarked) [Compound 20a]	50 to 100 mg/L (≈ 118 to 236 µM)	attenuated activity
C=C1C[C@@H](OC(=O)CSCCN(CC)CC)C2CCCC3(CCC(=O)C23)C[C@H]1O (some centres unmarked) [Compound 20c]	12 to 25 mg/L (≈ 28.3 to 59 µM)	compares favorably to tiamulin
CCN(CC)CCSCC(=O)O[C@H]1C/C(C)=C\CC23CCCC1C2C(=O)CC3 (some centres unmarked) [Compound 25]	50 mg/L (≈ 123 µM)	moderate, yet significant, level of activity
C=CC1(C)C[C@@H](OC(=O)CO)C2(C)C(C)CCC3(CCC(=O)C32)[C@@H](C)[C@@H]1O (some centres unmarked) [Pleuromutilin (1), Pleuromutilin, reference compound]	25 to 50 mg/L (≈ 66 to 132 µM)	low micromolar MIC values
C=C[C@]1(C)C[C@@H](OC(=O)CSCCN(CC)CC)C2(C)C(C)CCC3(CCC(=O)C32)[C@@H](C)[C@@H]1O (some centres unmarked) [tiamulin (3), tiamulin, reference compound]	12 to 25 mg/L (≈ 24.3 to 50.6 µM)	low micromolar MIC values
